# Read-outs that look alike come from different tables or passages of the source.
# Experiments:
# Assay type in all cases: cell-based, Pseudomonas aeruginosa
# [1] = test system: lasB-gfp(ASV) reporter in P. aeruginosa PAO-JP2 biofilm; assay: OdDHL-mediated signalling in PAO-JP2 flowcell biofilm, lasB-gfp(ASV) reporter, CSLM
# Procedure: P. aeruginosa biofilms. Biofilms were grown at 30° C. in three-dimensional flow cells (Christensen et al., 1999) with individual channel dimensions of 0.3×4×40 mm supplied With ABt minimal medium supplemented with 2% LB. The flow system was assembled and prepared as described by Christensen et al. (1999). The substratum consisted of a microscope glass coverslip (Knittel 24×50 mm st1, Knittel Glaser, Braunschweig, Germany). Cultures for inoculation of the flow channels were prepared in the following way: P. aeruginosa strains were streaked on LB plates with the appropriate antibiotics and incubated for 24 h at 37° C. From each plate a single colony was used for inoculation of 10 ml ABt with 10% LB. The cultures were grown at, 30° C. for 18 h before they were diluted to an OD600 nm of 0.1 in sterile 0.9% NaCl and used for inoculation of the flow channels. Medium flow was kept at a constant rate of 3 mL/h, equivalent to a mean flow velocity of 0.7 mm/s, using a Watson-Marlow 205S peristaltic pump (Watson-Marlow, Falmouth, England). Biofilms were grown for 24 hours before being shifted to media containing AHL and furanone.
# Scanning confocal laser microscopy (SCLM). Microscopic inspection and image acquisition were performed an a scanning confocal laser microscope (model TCS4D, Leica Lasertechnik GmbH, Heldelberg, Germany) equipped with a 63×/1.32-0.6 oil objective. The microscope was equipped with a motorized and programmable xy-stage, which was used for monitoring single colonies during the biofilm experiments. At the beginning of each online experiment, the microscope was programmed to track single randomly selected microcolonies; the sensitivity of photo multipliers and the laser intensity were adjusted and thereafter kept constant through out the duration of the experiments. Image scanning was carried out using the 488 nm and 568 nm lines of an Ar/Kr laser for detection of Gfp and Rfp, respectively. Visualization of captured images was performed using the IMARIS software package (Bitplane AG, Zúrich, Switzerland) running on a Silicon Graphics Indigo 2 workstation (Silicon Graphics, Mountain View, Calif. USA).
# Inhibition of AHL-mediated signalling in P. aeruginosa biofilms. The lasB-gfp(ASV) reported was integrated into the chromosome of PAO-JP2 to ensure stable segregation and a constant gene dosage of the reported system. The strain was growth in flowcells for 24 hours in ABt-LB medium and a 10-15 μm thick biofilm developed. The media flow was subsequently switched to ABt-LB medium containing the appropriate AHL and furanone concentrations. The development of green fluorescence was monitored online by CSLM for 8 hours.
# elastase = assay: Virulence factor production: elastase (proteolytic) activity of PAO-JP2 supernatant; conditions: PAO-JP2, 70 nm OdDHL plus 3 μg/ml and 5 μg/ml furanone 56
# Procedure: Measurements of virulence factors. PAO-JP2 was grown in LB medium at 37° C. and shaking at 250 rpm to an OD600 nm of 1.0. The culture was divided into seven subcultures, which were added 0, 70, or 1000 nm OdDHL and 0. 3. or 5 μg/ml furanone 58. The cultures were grown for an additional 4 hours at 37° C. The proteolytic activity was measured as described by Ayora & G{overscore (o)}tz (1994). Azocasein (250 μl 2%, Sigma, St. Louis, Mo.) in 50 mM Tris/HCl and steril-filtered (Ø 0.2 μm) supernatant (150 μl) were incubated for 4 h at […] After precipitation of undigested substrate with trichloroacetic acid (1.2 ml 10%) for 15 minutes, followed by 10 minutes centrifugation at 1000 rpm, NaOH (1.4 ml 1 M) were added to the supernatant. The relative protease activity was measured as the absorbance at 440 nm (OD440 nm) of the supernatant divided by the optical density of the culture (OD600 nm ).
# [2] = test system: P. aeruginosa protein synthesis; assay: Constitutive Gfp-expression (pMH306) in PAO1, protein synthesis control; conditions: PAO1 with pMH306, furanone 0 to 10 μ/ml; data not shown
# Procedure: (§1) To determine if the furanone compound worked specifically on the las quorum sensor and not indirectly by disruption of primary metabolic functions, we followed growth as optical density of P. aeruginosa PAO1 in the presence of furanone 56. […] Further, we tested whether the furanone affected P. aeruginosa protein synthesis. The wild type P. aeruginosa PAO1 strain containing the consitutive Gfp-expression vector pMH306 was grown in the presence of furanone 56 at concentrations from 0 to 10 μ/ml. Gfp-expression (fluorescence/OD600 nm) was throughout the growth cycle unaffected by the presence of furanone compound (data not shown).
# P. aeruginosa PAO-JP2 = assay: Growth of P. aeruginosa PAO-JP2; conditions: data not shown
# P. aeruginosa PAO1 = assay: Growth (optical density) of P. aeruginosa PAO1
# Procedure: (§2) AHL and furanone bioassay. Strains were grown exponentially in LB or ABt medium supplemented with 0.5% glucose at 30° C., shading at 250 rpm. At an optical density of approximately 0.8. the cultures were diluted and split into subcultures in glass culture flasks. AHLs and furanone 56 were added to appropriate concentrations and the cultures were further incubated at 30° C. under vigorous shaking. Culture samples were retrieved at various time intervals and green fluorescence was measured with a fluorometer (model RF-1501, Shimadzu, Tokyo, Japan) set at an excitation wavelength of 475 nm and emission wavelength of 515 nm. Relative fluorescence was calculated as green fluorescence normalized to 1 ml culture divided by the optical density (OD600 nm.
# as §1
# [3] = test system: las quorum sensing system (lasB-gfp(ASV) expression); assay: AHL and furanone bioassay, PlasB-gfp(ASV) Plac-lasR reporter in planktonic PAO-JP2
# Procedure: as §2
# Initially, the lasB-gfp(ASV) translational fusion (OdDHL sensor) was thoroughly characterized with respect to its sensitivity and specificity. A culture of E. coli hosting the pMHLAS monitor plasmid was diluted and spilt into several subcultures which were then supplemented with AHLs at concentrations ranging from 0 to 1000 nM. […] When the pMHLAS based reporter system was hosted by PAO-JP2. the OdDHL concentration required for half-maximal activation of the lasB-gfp(ASV) fusion was 8 nM (data not shown). In single copy on the chromosome of PAO-JP2, the OdDHL concentration on required for half-maximal activation of lasB expression was approximately 250 nM (FIG. 2b). Green fluorescent cells were visible by epifluorescence microscopy at a minimal OdDHL concentration of 50 nM (FIG. 2c).
# Noteworthy, the inhibitory effect of furanone 56 was relieved at increased concentrations of OdDHL.
structure (smiles),measurement,setting,value
O=C1C=C/C(=C/Br)O1 [furanone 56],induction of green fluorescence in biofilm,"[1]; 40 nM OdDHL and 2 μl/ml furanone 56, 8 hours",did not lead to induction of green fluorescence
same,induction of green fluorescence in biofilm,[1]; 80 nM OdDHL and 2 μg/ml furanone 56,green fluorescence was induced
same,induction of green fluorescence in biofilm,"[1]; 80 nM OdDHL and 4 μg/ml furanone, data not shown",Induction of green fluorescence was established
same,green fluorescence in biofilm,"[1]; 4 μg/ml alone, data not shown",No green fluorescence was observed
same,elastase activity,elastase,close to the uninduced level
same,Gfp-expression (fluorescence/OD600 nm) throughout the growth cycle,[2],unaffected
same,effect on growth rate,P. aeruginosa PAO-JP2,no effect on growth rate
same,concentrations without effect on growth,P. aeruginosa PAO1,< 10 µg/mL
same,effect on growth,"P. aeruginosa PAO1; PAO1, concentrations used for this study (up to 10 μg/ml)",no or only little effect on growth
same,concentrations without effect on growth,P. aeruginosa PAO1; listed as furanone,below 10 μg/ml
same,effect on lasB-gfp(ASV) expression,"[3]; 1.25 μ/ml (7.1 μM) furanone, range of OdDHL concentrations",inhibited lasB-gfp(ASV) expression at a wide range of OdDHL concentrations
same,complete inhibition of lasB-gfp(ASV) expression,[3]; any of the tested concentrations,complete inhibition was not attained at any of the tested concentrations

# From US20040147595A1, “Biofilm degrading or sloughing compositions and methods” (priority 2001, published 2004)
